Data on two compounds can be found in patent publication US20240360194A1, “New Peptides as Potent and Selective GIP Receptor Agonists” (Sanofi, priority 2021, published 2024).

≈ marks a conversion by molar mass, not a printed value. Where two headings read alike, the source gives them in different places.

Series [1] is described as follows: Solubility assessment (UHPLC-UV of supernatant, target 10 mg/ml). Type of series: physicochemical. The following applies: for solubility at 24 h: read-out: Soluble amount. The method in brief:
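Peptides at 10 mg/ml (purity-corrected) in 100 mM phosphate pH 7.4, optionally with 2.7 mg/ml m-cresol; gentle agitation 1 h, then 5° C. overnight (24 h). Supernatant after 15 min centrifugation at 2500 RCF quantified by UHPLC-UV, with sequence-based extinction coefficients.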

For series [2], the target named is T1, human GLP-1 receptor (hGLP-1R) (Homo sapiens, UniProt P43220). As to the kind of experiment: In vitro cellular cAMP assay for GLP-1 receptor efficacy (HEK-293 cell line over-expressing receptor). Type of series: cell-based. The settings on record: HEK-293, 0.1% BSA. For orientation: Changes in cAMP serve as a functional read-out for many G protein-coupled receptors.

For series [3], the target named is T2, human GIP receptor (hGIPR) (Homo sapiens, UniProt P48546).
T2 sequence (P48546 22-466): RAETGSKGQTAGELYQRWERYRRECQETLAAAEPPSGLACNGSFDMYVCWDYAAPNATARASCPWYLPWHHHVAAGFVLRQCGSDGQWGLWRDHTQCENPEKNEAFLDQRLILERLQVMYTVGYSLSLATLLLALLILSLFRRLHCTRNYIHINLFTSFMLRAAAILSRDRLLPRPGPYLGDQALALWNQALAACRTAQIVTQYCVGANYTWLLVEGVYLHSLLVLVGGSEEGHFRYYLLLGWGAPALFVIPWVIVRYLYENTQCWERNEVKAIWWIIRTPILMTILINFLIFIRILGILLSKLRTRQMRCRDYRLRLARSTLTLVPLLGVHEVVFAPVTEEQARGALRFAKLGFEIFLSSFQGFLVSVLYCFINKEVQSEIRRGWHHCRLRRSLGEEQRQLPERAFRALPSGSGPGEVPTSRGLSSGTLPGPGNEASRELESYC
Nature of the series: In vitro cellular cAMP assay for GIP receptor efficacy (HEK-293 cell line over-expressing receptor). Type of series: cell-based.

Series [4] addresses T3, human GIP receptor (Homo sapiens, UniProt P48546).
T3 construct: human adipocytes endogenously expressing the human GIP receptor; host or cells: human preadipocytes (Lonza) differentiated to adipocytes
T3 sequence (P48546 22-466): T2 sequence (P48546 22-466)
Nature of the series: In vitro cellular cAMP assay for GIP receptor efficacy (human adipocytes). Type of series: cell-based. The settings on record: for EC50: read-out: hGIPR EC50; for Emax: read-out: hGIPR Emax. Summed up: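 Human preadipocytes expanded, then differentiated 6 days (insulin, dexamethasone, PPARγ agonist, 200 μM IBMX, L-thyroxine) before plating at 5000 cells/well. Test compound applied 30 min at room temperature; cAMP measured by HTRF after 1 h with lysis-buffer reagents, read as 665/620 nm fluorescence ratio.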

For series [5], the target named is T2, human GIP receptor (hGIPR). As to the kind of experiment: Binding assay, displacement of [125I]GIP from HEK-293 membranes over-expressing GIPR (SPA). The following applies: [125I]GIP displacement. Summed up:
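Membranes from HEK-293 cells over-expressing human GIPR or GLP-1R, isolated by homogenising, sonicating and ultracentrifuging at 100000×g into HEPES/EDTA/NaCl buffer with protease inhibitors, were used for binding.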
In general terms: In a radioligand displacement assay an active substance lowers the binding of a labelled ligand.

The target in series [6] is T1, human GLP-1 receptor (hGLP-1R). Nature of the series: Binding assay, displacement of [125I]GLP-1 from HEK-293 membranes over-expressing GLP-1R (SPA). The following applies: [125I]GLP-1 displacement. Here is the method: (1) Preparation of Membranes from HEK-293 Cells Over-Expressing GIPR or GLP-1R
HEK-293 cells recombinantly over-expressing GIPR or GLP-1R were grown to 50% confluency, washed with warm 1×PBS (Gibco) and detached in HEPES/EDTA-buffer (100 mM HEPES pH 7.5, 5 mM EDTA). Cells were harvested by centrifugation at 4° C. and 3000×g and the pellets were stored at −80° C. until further processing.
After thawing on ice, pellets were resuspended in HEPES/EDTA-buffer and homogenized on ice for 1 min using Ultra-Turray T25. After subsequent sonification the cell debris was removed by centrifugation at 1000×g and 4° C. Supernatants were then ultra-centrifuged at 100000×g and 4° C. under vacuum for 30 min. Pellets were resuspended in HEPES/EDTA/NaCl-buffer (20 mM HEPES, 1 mM EDTA, 150 mM NaCl; add 1 Complete Mini Protease inhibitor cocktail to 10 ml buffer) and protein content was determined via BCA-Protein assay.
(2) Measurement of Binding Activity of Test Compounds to Human GIPR or GLP-1R

Where [7] appears, read: EC50 hGIPR 0.1% BSA, HEK-293, 0.1% BSA.

T1 sequence (P43220 24-463): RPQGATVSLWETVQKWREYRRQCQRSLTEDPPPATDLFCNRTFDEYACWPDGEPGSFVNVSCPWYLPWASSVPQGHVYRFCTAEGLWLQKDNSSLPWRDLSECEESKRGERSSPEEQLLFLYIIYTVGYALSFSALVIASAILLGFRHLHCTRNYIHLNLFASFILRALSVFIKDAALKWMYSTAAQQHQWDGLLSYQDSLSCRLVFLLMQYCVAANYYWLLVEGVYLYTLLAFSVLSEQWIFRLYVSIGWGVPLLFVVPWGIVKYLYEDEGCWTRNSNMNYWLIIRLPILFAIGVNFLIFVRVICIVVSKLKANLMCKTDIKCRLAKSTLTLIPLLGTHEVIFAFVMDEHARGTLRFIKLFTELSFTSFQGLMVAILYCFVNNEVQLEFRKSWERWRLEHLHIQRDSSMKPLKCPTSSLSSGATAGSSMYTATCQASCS

Regarding `CC[C@H](C)[C@H](NC(=O)[C@H](CCCNC(=N)N)NC(=O)[C@H](CC(=O)O)NC(=O)[C@H](CCCCNC(=O)COCCOCCNC(=O)COCCOCCNC(=O)CC[C@H](NC(=O)CC[C@H](NC(=O)CCCCCCCCCCCCCCCCC(=O)O)C(=O)O)C(=O)O)NC(=O)C(C)(C)NC(=O)[C@@H](NC(=O)[C@H](CO)NC(=O)[C@H](CC(C)C)NC(=O)[C@H](CC(=O)O)NC(=O)[C@H](CO)NC(=O)[C@@H](NC(=O)[C@H](Cc1ccccc1)NC(=O)[C@@H](NC(=O)CNC(=O)[C@H](CCC(=O)O)NC(=O)C(C)(C)NC(=O)[C@@H](N)Cc1ccc(O)cc1)[C@@H](C)O)[C@@H](C)CC)[C@@H](C)CC)C(=O)N[C@@H](Cc1c[nH]cn1)C(=O)N[C@@H](CCC(N)=O)C(=O)NC(C)(C)C(=O)N[C@@H](CCC(=O)O)C(=O)N[C@@H](Cc1ccccc1)C(=O)N[C@H](C(=O)N[C@@H](CCC(=O)O)C(=O)N[C@@H](Cc1c[nH]c2ccccc12)C(=O)N[C@@H](CC(C)C)C(=O)N[C@@H](CC(C)C)C(=O)N[C@@H](C)C(=O)N[C@@H](CCC(N)=O)C(=O)N[C@@H](CCCNC(=N)N)C(=O)NCC(N)=O)[C@@H](C)CC` [SEQ ID NO: 9, H2N-Y-Aib-E-G-T-F-I-S-D-L-S-I-Aib-K[{AEEA}2-{gGlu}2-C18OH]-D-R-I-H-Q-Aib-E-F-I-E-W-L-L-A-Q-R-G-NH2], the solubility at 24 h is greater than 10200 µg/mL in series [1] (100 mM phosphate buffer pH 7.4 (solubility buffer system A), pH 7.4, Solubility buffer system A: 100 mM phosphate buffer pH 7.4) and 7700 µg/mL (≈ 1720 µM) in series [1] (pH 7.4, Solubility buffer system C: 100 mM phosphate buffer pH 7.4, 2.7 mg/ml m-cresol). The EC50 in series [2] was greater than 10 nM; in series [3] (setting [7]), 0.00917 nM; in series [4] it was 0.8 nM. Besides, the Emax in series [4] is 108%. The IC50 in series [5] amounted to 0.6 nM; in series [6], 224 nM.

Take `CC[C@H](C)[C@H](NC(=O)[C@H](CCCNC(=N)N)NC(=O)[C@H](CC(=O)O)NC(=O)[C@H](CCCCNC(=O)COCCOCCNC(=O)COCCOCCNC(=O)CC[C@H](NC(=O)CCCCCCCCCCCCCCCCC(=O)O)C(=O)O)NC(=O)C(C)(C)NC(=O)[C@@H](NC(=O)[C@H](CO)NC(=O)[C@H](CC(C)C)NC(=O)[C@H](CC(=O)O)NC(=O)[C@H](CO)NC(=O)[C@@H](NC(=O)[C@@](C)(CC)NC(=O)[C@@H](NC(=O)CNC(=O)[C@H](CCC(=O)O)NC(=O)C(C)(C)NC(=O)[C@@H](N)Cc1ccc(O)cc1)[C@@H](C)O)[C@@H](C)CC)[C@@H](C)CC)C(=O)N[C@@H](Cc1c[nH]cn1)C(=O)N[C@@H](CCC(N)=O)C(=O)N[C@@H](CCC(=O)O)C(=O)N[C@@H](CCC(=O)O)C(=O)N[C@@](C)(Cc1ccccc1)C(=O)N[C@H](C(=O)N[C@@H](CCC(=O)O)C(=O)N[C@@H](Cc1c[nH]c2ccccc12)C(=O)N[C@@H](CC(C)C)C(=O)N[C@@H](CC(C)C)C(=O)N[C@@H](C)C(=O)N[C@@H](CCC(N)=O)C(=O)N[C@@H](CCCNC(=N)N)C(=O)NCC(N)=O)[C@@H](C)CC` [SEQ ID NO: 17, H2N-Y-Aib-E-G-T-Iva-I-S-D-L-S-I-Aib-K[{AEEA}2-gGlu-C18OH]-D-R-I-H-Q-E-E-Mph-I-E-W-L-L-A-Q-R-G-NH2]: the solubility in series [1] (pH 7.4, Soluble amount) stood at 7400 µg/mL (≈ 1700 µM). In addition, the EC50 was greater than 10 nM in series [2]; 0.0821 nM in series [3] (setting [7]); 0.00137 nM in series [3] (HEK-293, without albumin (0% HSA), read-out: EC50 hGIPR 0% HSA); 0.8 nM in series [4]. The Emax in series [4] came to 110%. Further, the IC50 in series [5] came to 0.2 nM; in series [6], 935 nM.

A word on the EC50: it is the midpoint of the concentration-response curve. In general, Emax refers to the greatest response seen or fitted, relative to the assay's reference. What is called IC50 is the point on the concentration scale where inhibition reaches its midpoint. A high value points to a need for much substance.
